The values below come from patent publication US20200031778A1, “NOVEL 5-SUBSTITUTED IMIDAZOLYLMETHYL DERIVATIVES” (Bayer CropScience Aktiengesellschaft, priority 2016, published 2020).

The nature of the series: Log P by HPLC on reversed phase columns (EEC directive 79/831 Annex V.A8; methods [a], [b], [c]). It is filed as physicochemical. Particulars: for chromatographic logP: reversed phase HPLC column. The method in brief:
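Log P derived from retention times, interpolated linearly between bracketing straight-chain alkan-2-ones (3–16 carbons) of known Log P. Eluents ran acetonitrile 10% to 95% against water with 0.1% formic acid ([a], acidic), 0.001 M ammonium acetate ([b], neutral) or 0.1% phosphoric acid ([c], acidic); UV read-out.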

Setting [1] is: method [a]: LC-UV, acidic range, 0.1% formic acid in water and acetonitrile as eluent (linear gradient from 10% to 95% acetonitrile).

With `N#Cc1cncn1CC(O)(c1ccccc1C(F)(F)F)C1(F)CC1` (stereo not shown) [I-348], the LogP is 2.28^[a].

For the compound `OC(Cn1cncc1Cl)c1ccc(Oc2ccc(Cl)cn2)cc1Cl` (stereo not shown) [I-37], the LogP was 1.98^[a]. The same measure, in the same setting: the same measure for `CCCC(O)(Cn1cncc1C#N)c1ccc(C(F)(F)F)cc1Cl` (stereo not shown) [I-421]: 3.23^[a]; for `COc1ccc(Oc2ccc(C(C)(O)Cn3cncc3Cl)c(Cl)n2)c(Cl)c1` (stereo not shown) [I-163]: 2.30^[a]. Same read-out and setting: the result for `N#Cc1cncn1CC(O)c1ccc(Oc2ccc(Br)cc2)nc1C(F)(F)F` (stereo not shown) [I-128] reads 3.09^[a]; that for `N#Cc1cncn1CC(O)(c1ccc(C(F)(F)F)cc1Cl)C1CC1` (stereo not shown) [I-418], 2.98^[a].

As to `CCOC(Cn1cncc1C#N)c1ccc(Oc2ccc(Cl)cc2)cc1C(F)(F)F` (stereo not shown) [I-84], the LogP was 4.54^[a]. On the same count and under the same terms, the result for `N#Cc1cncn1CC(O)(c1ccc(F)cc1C(F)(F)F)C1CC1` (stereo not shown) [I-467] reads 2.47^[a]; that for `C=CCC(O)(Cn1cncc1C#N)C1(F)CC1` (stereo not shown) [I-664], 1.56^[a]. The same measure, in the same setting: the same measure for `OC(Cn1cncc1Br)c1ccc(Oc2ccc(Cl)cc2)cc1C(F)(F)F` (stereo not shown) [I-29]: 2.84^[a]; for `N#Cc1cncn1CC(O)(c1ccc(Cl)cc1C(F)(F)F)C1CC1` (stereo not shown) [I-464]: 2.78^[a]. Same read-out and setting: the same measure for `C#CCOC(Cn1cncc1F)c1ccc(Oc2ccc(Cl)cc2)cc1C(F)(F)F` (stereo not shown) [I-106]: 3.26^[a]; for `CCCC(C)C(O)(Cn1cncc1C#N)c1ccc(Cl)cc1` (single isomer, unassigned) [I-327]: 3.08^[a]; for `OC(Cn1cncc1Cl)c1ccc(Oc2ccc(Br)cn2)cc1Cl` (stereo not shown) [I-79]: 2.10^[a]. On to `N#Cc1cncn1CC(O)c1ccc(Oc2ccc(Br)nc2)nc1C(F)(F)F` (stereo not shown) [I-154], for which the LogP was 2.46^[a]. With `C[Si](C)(C)C#Cc1ccc(C(O)(Cn2cncc2C#N)C2(Cl)CC2)c(F)c1` (stereo not shown) [I-650], the LogP is 4.03^[a]. In the case of `N#Cc1cncn1CC(O)(c1c(F)ccc(Cl)c1F)C1(F)CC1` (stereo not shown) [I-587], the LogP was 2.28^[a].

Consider `CCCCC(O)(Cn1cncc1C#N)c1ccc(OC(F)(F)F)cc1` (stereo not shown) [I-265], for which the LogP was 3.25^[a]. Consider `CC(C)(C)C(O)(C#CCC1CCCCC1)Cn1cncc1C#N` (stereo not shown) [I-541], for which the LogP was 3.72^[a]. As to `COc1ccc(Oc2ccc(C(=O)Cn3cncc3Cl)c(Cl)n2)c(Cl)c1` [IX-24], under setting [1], the chromatographic logP came out at 2.64. Regarding `OC(Cn1cncc1Cl)c1ccc(Oc2ccc(Br)cc2)cc1Cl` (stereo not shown) [I-11], the LogP is 2.75^[a]. On the same count and under the same terms, the result for `N#Cc1cncn1CC(O)(c1ccc(F)cc1Br)C1(Cl)CC1` (stereo not shown) [I-387] reads 2.48^[a]. `O=Cc1ccc(Oc2ccc(C(=O)Cn3cncc3F)c(Cl)n2)cc1` [IX-85] registered a chromatographic logP under setting [1] of 1.59. As for `CCCC#Cc1ccc(C(O)(Cn2cncc2C#N)C2(F)CC2)c(Cl)c1` (stereo not shown) [I-641], the LogP is 3.52^[a]. On the same count and under the same terms, the result for `N#Cc1cncn1CC(O)c1cnc(Oc2ccc(C(F)F)cc2)cc1C(F)(F)F` (stereo not shown) [I-115] reads 2.80^[a]; that for `CC(O)(Cn1cncc1C#N)c1cnc(Oc2ccc(Cl)nc2)cc1C(F)(F)F` (stereo not shown) [I-360], 2.43^[a]. Still for that read-out and setting: the result for `N#Cc1ccc(C(O)(Cn2cncc2C#N)C2(F)CC2)c(Cl)c1` (stereo not shown) [I-389] reads 2.04^[a]. Same read-out and setting: the same measure for `N#Cc1cncn1CC(O)(C#CC1CCCC1)C1(F)CC1` (stereo not shown) [I-453]: 2.30^[a]. Take `OC(Cn1cncc1Cl)c1ccc(Oc2ccc(Cl)cc2)cc1Br` (stereo not shown) [I-23]: the LogP is 2.54^[a].

In the case of `CC(O)(Cn1cncc1C(F)(F)F)c1ccc(Oc2ccc(Cl)cc2)cc1Cl` (stereo not shown) [I-183], the LogP is 4.25^[a]. On the same count and under the same terms, the same measure for `N#Cc1cncn1CC(O)c1cnc(Oc2ccc(C(F)(F)F)nc2)cc1C(F)(F)F` (stereo not shown) [I-118]: 2.46^[a]; for `CC(C)(C)C(O)(Cn1cncc1C#N)c1cc(F)cc(F)c1` (stereo not shown) [I-457]: 2.64^[a]. The same measure, in the same setting: the result for `OC(Cn1cncc1F)c1ccc(Oc2ccc(Br)nc2)nc1C(F)(F)F` (stereo not shown) [I-155] reads 1.75^[a]; that for `CC(C)(C)c1ccc(C#CC(O)(Cn2cncc2C#N)C2(F)CC2)cc1` (stereo not shown) [I-372], 3.39^[a]; that for `N#Cc1cncn1CC(O)c1ccc(Cl)cc1` (stereo not shown) [I-112], 1.53^[a]. On the same count and under the same terms, the result for `OC(Cn1cncc1Br)c1ccc(Oc2ccc(Cl)cc2)cc1` (stereo not shown) [I-18] reads 2.23^[a]; that for `C[Si](C)(C)CC(O)(Cn1cncc1C#N)c1ccc(OC(F)(F)F)cc1` (stereo not shown) [I-270], 3.70^[a]; that for `OC(CCC1CCCC1)(Cn1cncc1C(F)(F)F)C1(Cl)CC1` (stereo not shown) [I-674], 4.10^[a]. For the compound `N#Cc1cncn1CC(O)(c1cc(Cl)c(F)cc1F)C1(Cl)CC1` (stereo not shown) [I-586], the LogP was 2.61^[a].

`CC(=O)c1cncn1CC(C)(O)c1ccc(Oc2ccc(C(F)(F)F)nc2)nc1C(F)(F)F` (stereo not shown) [I-291]: the LogP is 2.27^[a]. Still for that read-out and setting: the result for `CC(O)(Cn1cncc1C#N)c1cnc(Oc2ccc(C(F)(F)F)cc2)cc1Br` (stereo not shown) [I-253] reads 3.27^[a]; that for `N#Cc1cncn1CC(O)(c1ccc(Cl)cc1Br)C1(F)CC1` (stereo not shown) [I-386], 2.66^[a]. Still for that read-out and setting: the same measure for `N#Cc1cncn1CC(O)(C#Cc1ccccc1Cl)C1(Cl)CC1` (stereo not shown) [I-324]: 2.73^[a]. Still for that read-out and setting: the same measure for `OC(CCCC1CCCCC1)(Cn1cncc1C(F)(F)F)C1(Cl)CC1` (stereo not shown) [I-676]: 5.19^[a]; for `CCCCCC(O)(Cn1cncc1C#N)c1ccc(Cl)cc1Cl` (stereo not shown) [I-302]: 3.83^[a]; for `N#Cc1cncn1CC(O)(c1cc(Cl)cc(Cl)c1F)C1(F)CC1` (stereo not shown) [I-572]: 2.66^[a]. Consider `CC(C)(C)CC(O)(Cn1cncc1C#N)c1ccc(C(F)(F)F)cc1Cl` (stereo not shown) [I-268], for which the LogP is 3.85^[a]. The same measure, in the same setting: the same measure for `N#Cc1cncn1CC(O)(c1c(F)ccc(F)c1Cl)C1(F)CC1` (stereo not shown) [I-567]: 2.15^[a]; for `N#Cc1cncn1CC(O)(CC1CC1)c1ccc(Br)cc1Br` (stereo not shown) [I-429]: 2.82^[a]. The compound `N#Cc1cncn1CC(=O)c1cccc(Cl)c1F` [IX-148] showed a chromatographic logP under setting [1] of 2.02. With `N#Cc1cncn1CC(O)(c1ccc(F)c(Br)c1F)C1(F)CC1` (stereo not shown) [I-625], the LogP was 2.35^[a].

In the case of `CC(O)(Cn1cncc1F)c1cnc(Oc2ccc(Br)cc2)cc1C(F)(F)F` (single isomer, unassigned) [I-220], the LogP was 2.37^[a]. Still for that read-out and setting: the same measure for `N#Cc1cncn1CC(O)(CC1CC1)c1cc(F)c(Cl)c(F)c1` (stereo not shown) [I-499]: 2.73^[a]. The same measure, in the same setting: the same measure for `N#Cc1cncn1CC(O)(CCC1CCCCC1)C1(F)CC1` (stereo not shown) [I-662]: 3.19^[a]; for `N#Cc1cncn1CC(O)(c1ccccc1C(F)(F)F)C1CC1` (stereo not shown) [I-330]: 2.35^[a]. Consider `CC(C)(C)C(O)(Cn1cncc1C#N)c1cc(F)c(Cl)c(F)c1` (stereo not shown) [I-491], for which the LogP was 3.01^[a].

For the compound `OC(Cn1cncc1Br)c1ccc(Oc2ccc(Br)cc2)cc1Br` (stereo not shown) [I-44], the LogP is 2.78^[a].

Regarding `N#Cc1cncn1CC(O)(c1ccc(Cl)cc1)C1(Cl)CC1` (stereo not shown) [I-232], the LogP is 2.49^[a]. Still for that read-out and setting: the same measure for `N#Cc1cncn1CC(O)(c1c(F)cc(F)cc1Cl)C1(Cl)CC1` (stereo not shown) [I-563]: 2.45^[a].

Turning to `CC(O)(Cn1cncc1Cl)c1ccc(Oc2ccc(Br)cc2)cc1C(F)(F)F` (stereo not shown) [I-169], the LogP is 2.90^[a].

With `CCCCC(O)(Cn1cncc1C#N)c1ccc(C(F)(F)F)cc1Cl` (stereo not shown) [I-266], the LogP was 3.65^[a]. Still for that read-out and setting: the result for `N#Cc1cncn1CC(O)(c1ccccc1Br)C1(Cl)CC1` (stereo not shown) [I-255] reads 2.37^[a]. Same read-out and setting: the same measure for `COc1ccc(Oc2ccc(C(O)Cn3cncc3Cl)c(Cl)n2)c(Cl)c1` (stereo not shown) [I-16]: 2.23^[a]. On the same count and under the same terms, the same measure for `COC(C)(Cn1cncc1C#N)c1ccc(Oc2ccc(Br)cc2)cc1C(F)(F)F` (stereo not shown) [I-296]: 4.51^[a]; for `Cc1ccc(Oc2ccc(C(O)Cn3cncc3Cl)c(Cl)c2)cc1` (stereo not shown) [I-02]: 2.50^[a]. For `N#Cc1cncn1CC(O)(CC1CC1)c1ccc(Cl)c(Br)c1` (stereo not shown) [I-533], the LogP was 2.86^[a]. The same measure, in the same setting: the same measure for `CC(O)(Cn1cncc1Cl)c1ccc(Oc2ccc(Cl)cc2)cc1Cl` (stereo not shown) [I-167]: 2.86^[a]; for `CC(C)CC#CC(O)(Cn1cncc1C#N)C1(F)CC1` (stereo not shown) [I-540]: 2.25^[a].

With `N#Cc1cncn1CC(O)(c1ccc(Cl)c(F)c1Cl)C1(Cl)CC1` (stereo not shown) [I-617], the LogP was 2.64^[a]. `CC(O)(Cn1cncc1F)c1ccc(Oc2ccc(Cl)cc2)nc1F` (stereo not shown) [I-214]: the LogP was 1.98^[a].

Take `N#Cc1cncn1CC(O)(c1cc(Cl)cc(Br)c1)C1(F)CC1` (stereo not shown) [I-536]: the LogP was 2.76^[a].

For `C#Cc1ccc(C(O)(Cn2cncc2C#N)C2(F)CC2)c(F)c1` (stereo not shown) [I-647], the LogP is 2.21^[a]. Still for that read-out and setting: the result for `N#Cc1cncn1CC(O)(c1cc(Cl)cc(Cl)c1)C1(F)CC1` (stereo not shown) [I-472] reads 2.67^[a]; that for `N#Cc1cncn1CC(O)(c1ccc(Br)cc1Cl)C1(F)CC1` (stereo not shown) [I-376], 2.76^[a]. Same read-out and setting: the same measure for `N#Cc1cncn1CC(O)(c1ccc(Cl)cc1)C1(F)CC1` (stereo not shown) [I-231]: 2.27^[a]. Under “method [a], HPLC on reversed phase columns”, `N#Cc1cncn1CC(O)(C=CC1CCCCC1)C1(Cl)CC1` (stereo not shown) [I-663, 1-[2-(1-chlorocyclopropyl)-4-cyclohexyl-2-hydroxybut-3-en-1-yl]-1H-imidazole-5-carbonitrile] yielded a chromatographic logP of 3.48. Turning to `CCCC(O)(Cn1cncc1C#N)c1ccc(Cl)cc1` (stereo not shown) [I-289], the LogP is 2.39^[a]. As to `CCCC(O)(Cn1cncc1C#N)c1ccc(C2CC2)cc1Cl` (stereo not shown) [I-407], the LogP was 3.19^[a]. On the same count and under the same terms, the result for `OC(Cn1cncc1C(F)(F)F)c1ccc(Oc2ccc(Cl)cc2)cc1F` (stereo not shown) [I-90] reads 3.4^8[a]; that for `N#Cc1cncn1CC(O)c1ccc(Oc2ccc(Cl)nc2)nc1C(F)(F)F` (stereo not shown) [I-151], 2.37^[a]; that for `CC(C)C(O)(Cn1cncc1C#N)c1ccc(Cl)cc1F` (stereo not shown) [I-417], 2.68^[a]. On the same count and under the same terms, the result for `CC(O)(Cn1cncc1Br)c1ccc(Oc2ccc(Br)cc2)cc1Cl` (stereo not shown) [1-174] reads 2.96^[a].
